From paper PMC5666424, “Marine-Derived 2-Aminoimidazolone Alkaloids. Leucettamine B-Related Polyandrocarpamines Inhibit Mammalian and Protozoan DYRK & CLK Kinases” (Marine Drugs, 2017)

Columns and labels:
Experiment in all cases: KinomeScan
Assay type in all cases: binding
Details in all cases: 1 μM
GAK = target: T1, GAK (Homo sapiens, UniProt O14976)
T1 construct: purchased DiscoverX (KINOMEscan)

MST4 = target: T2, MST4 (Homo sapiens, UniProt Q9P289)
T2 construct: purchased DiscoverX (KINOMEscan)

SIK2 = target: T3, SIK2 (Homo sapiens, UniProt Q9H0K1)
T3 construct: purchased DiscoverX (KINOMEscan)

MYO3A = target: T4, MYO3A (Homo sapiens, UniProt Q8NEV4)
T4 construct: purchased DiscoverX (KINOMEscan)

MEK2 = target: T5, MEK2 (Homo sapiens, UniProt P36507)
T5 construct: purchased DiscoverX (KINOMEscan)
T5 sequence (P36507 whole entry): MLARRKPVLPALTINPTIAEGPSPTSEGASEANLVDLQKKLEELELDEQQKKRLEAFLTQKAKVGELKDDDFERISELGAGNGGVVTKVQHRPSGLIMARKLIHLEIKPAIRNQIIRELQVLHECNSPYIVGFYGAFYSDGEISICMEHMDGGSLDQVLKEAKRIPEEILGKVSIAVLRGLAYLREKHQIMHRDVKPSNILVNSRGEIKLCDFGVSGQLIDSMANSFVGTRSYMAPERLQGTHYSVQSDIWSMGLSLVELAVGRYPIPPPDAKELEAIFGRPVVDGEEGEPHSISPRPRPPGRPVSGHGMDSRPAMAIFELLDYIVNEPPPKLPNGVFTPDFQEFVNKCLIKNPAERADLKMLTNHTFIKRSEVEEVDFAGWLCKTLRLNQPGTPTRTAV

TIE2 = target: T6, TIE2 (Homo sapiens, UniProt Q02763)
T6 construct: purchased DiscoverX (KINOMEscan)

SNRK = target: T7, SNRK (Homo sapiens, UniProt Q9NRH2)
T7 construct: purchased DiscoverX (KINOMEscan)

FGFR3(G697C) = target: T8, FGFR3(G697C) (Homo sapiens, UniProt P22607, G697C)
T8 construct: purchased DiscoverX (KINOMEscan)

[1] = target: T9, ABL1(F317L)-phosphorylated (Homo sapiens, UniProt P00519, F317L)
T9 construct: purchased DiscoverX (KINOMEscan)

p38-alpha = target: T10, p38-alpha (Homo sapiens, UniProt Q16539)
T10 construct: purchased DiscoverX (KINOMEscan)

CDKL3 = target: T11, CDKL3 (Homo sapiens, UniProt Q8IVW4)
T11 construct: purchased DiscoverX (KINOMEscan)

EPHA8 = target: T12, EPHA8 (Homo sapiens, UniProt P29322)
T12 construct: purchased DiscoverX (KINOMEscan)

CHEK2 = target: T13, CHEK2 (Homo sapiens, UniProt O96017)
T13 construct: purchased DiscoverX (KINOMEscan)
T13 sequence (O96017 whole entry): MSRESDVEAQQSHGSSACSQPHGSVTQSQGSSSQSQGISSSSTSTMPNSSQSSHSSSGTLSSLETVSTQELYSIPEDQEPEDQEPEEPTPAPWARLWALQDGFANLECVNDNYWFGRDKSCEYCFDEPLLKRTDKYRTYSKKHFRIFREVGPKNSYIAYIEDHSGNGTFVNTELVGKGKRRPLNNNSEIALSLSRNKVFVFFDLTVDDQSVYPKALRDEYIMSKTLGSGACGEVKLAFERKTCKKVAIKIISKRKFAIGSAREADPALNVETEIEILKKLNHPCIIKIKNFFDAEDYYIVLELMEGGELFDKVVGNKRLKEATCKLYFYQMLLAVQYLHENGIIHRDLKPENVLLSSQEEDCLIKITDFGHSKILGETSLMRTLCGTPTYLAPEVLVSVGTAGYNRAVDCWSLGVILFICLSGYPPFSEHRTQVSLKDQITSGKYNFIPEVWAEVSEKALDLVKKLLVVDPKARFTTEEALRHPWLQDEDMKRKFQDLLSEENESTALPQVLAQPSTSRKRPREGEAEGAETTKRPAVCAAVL

TNIK = target: T14, TNIK (Homo sapiens, UniProt Q9UKE5)
T14 construct: purchased DiscoverX (KINOMEscan)

SRPK1 = target: T15, SRPK1 (Homo sapiens, UniProt Q96SB4)
T15 construct: purchased DiscoverX (KINOMEscan)

MEK1 = target: T16, MEK1 (Homo sapiens, UniProt Q02750)
T16 construct: purchased DiscoverX (KINOMEscan)

CAMKK2 = target: T17, CAMKK2 (Homo sapiens, UniProt Q96RR4)
T17 construct: purchased DiscoverX (KINOMEscan)

STK36 = target: T18, STK36 (Homo sapiens, UniProt Q9NRP7)
T18 construct: purchased DiscoverX (KINOMEscan)

CDC2L2 = target: T19, CDC2L2 (Homo sapiens, UniProt Q9UQ88)
T19 construct: purchased DiscoverX (KINOMEscan)
T19 sequence (Q9UQ88 whole entry): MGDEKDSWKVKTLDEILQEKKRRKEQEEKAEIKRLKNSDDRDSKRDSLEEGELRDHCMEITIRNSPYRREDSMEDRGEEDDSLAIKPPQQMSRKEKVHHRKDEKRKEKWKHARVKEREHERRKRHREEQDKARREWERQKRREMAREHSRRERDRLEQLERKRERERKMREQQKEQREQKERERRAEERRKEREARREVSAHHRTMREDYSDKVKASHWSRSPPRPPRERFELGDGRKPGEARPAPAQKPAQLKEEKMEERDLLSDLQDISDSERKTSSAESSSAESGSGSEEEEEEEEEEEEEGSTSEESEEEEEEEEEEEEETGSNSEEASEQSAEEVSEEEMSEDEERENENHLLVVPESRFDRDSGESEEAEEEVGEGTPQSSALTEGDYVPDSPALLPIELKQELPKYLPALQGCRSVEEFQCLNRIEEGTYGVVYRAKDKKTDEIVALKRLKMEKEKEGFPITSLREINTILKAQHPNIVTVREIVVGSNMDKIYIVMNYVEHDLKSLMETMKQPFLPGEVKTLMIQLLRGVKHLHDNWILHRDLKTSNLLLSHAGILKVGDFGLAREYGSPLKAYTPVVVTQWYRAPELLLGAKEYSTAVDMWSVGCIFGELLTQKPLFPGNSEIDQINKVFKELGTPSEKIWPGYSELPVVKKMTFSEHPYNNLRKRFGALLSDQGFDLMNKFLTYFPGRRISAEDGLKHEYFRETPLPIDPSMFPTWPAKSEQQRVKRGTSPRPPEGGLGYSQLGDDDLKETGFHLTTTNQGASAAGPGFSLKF

TSSK1B = target: T20, TSSK1B (Homo sapiens, UniProt Q9BXA7)
T20 construct: purchased DiscoverX (KINOMEscan)
T20 sequence (Q9BXA7 whole entry): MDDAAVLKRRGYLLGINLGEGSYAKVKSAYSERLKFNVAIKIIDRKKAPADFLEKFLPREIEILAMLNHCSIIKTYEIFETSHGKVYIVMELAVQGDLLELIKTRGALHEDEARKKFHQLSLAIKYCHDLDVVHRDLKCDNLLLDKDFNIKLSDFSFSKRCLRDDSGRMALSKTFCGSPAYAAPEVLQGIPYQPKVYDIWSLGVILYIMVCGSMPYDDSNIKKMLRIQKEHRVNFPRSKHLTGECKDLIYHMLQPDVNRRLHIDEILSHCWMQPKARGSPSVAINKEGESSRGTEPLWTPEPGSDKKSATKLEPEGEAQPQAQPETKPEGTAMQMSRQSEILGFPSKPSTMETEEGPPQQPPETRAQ

HUNK = target: T21, HUNK (Homo sapiens, UniProt P57058)
T21 construct: purchased DiscoverX (KINOMEscan)

CASK = target: T22, CASK (Homo sapiens, UniProt O14936)
T22 construct: purchased DiscoverX (KINOMEscan)

MARK4 = target: T23, MARK4 (Homo sapiens, UniProt Q96L34)
T23 construct: purchased DiscoverX (KINOMEscan)

CDKL1 = target: T24, CDKL1 (Homo sapiens, UniProt Q00532)
T24 construct: purchased DiscoverX (KINOMEscan)

BRAF = target: T25, BRAF (Homo sapiens, UniProt P15056)
T25 construct: purchased DiscoverX (KINOMEscan)

ZAK = target: T26, ZAK (Homo sapiens, UniProt Q9NYL2)
T26 construct: purchased DiscoverX (KINOMEscan)

CAMK2G = target: T27, CAMK2G (Homo sapiens, UniProt Q13555)
T27 construct: purchased DiscoverX (KINOMEscan)

MYLK2 = target: T28, MYLK2 (Homo sapiens, UniProt Q9H1R3)
T28 construct: purchased DiscoverX (KINOMEscan)

YES = target: T29, YES (Homo sapiens, UniProt P07947)
T29 construct: purchased DiscoverX (KINOMEscan)

EGFR(G719C) = target: T30, EGFR(G719C) (Homo sapiens, UniProt P00533, G719C)
T30 construct: purchased DiscoverX (KINOMEscan)

ACVR2B = target: T31, ACVR2B (Homo sapiens, UniProt Q13705)
T31 construct: purchased DiscoverX (KINOMEscan)
T31 sequence (Q13705 19-512): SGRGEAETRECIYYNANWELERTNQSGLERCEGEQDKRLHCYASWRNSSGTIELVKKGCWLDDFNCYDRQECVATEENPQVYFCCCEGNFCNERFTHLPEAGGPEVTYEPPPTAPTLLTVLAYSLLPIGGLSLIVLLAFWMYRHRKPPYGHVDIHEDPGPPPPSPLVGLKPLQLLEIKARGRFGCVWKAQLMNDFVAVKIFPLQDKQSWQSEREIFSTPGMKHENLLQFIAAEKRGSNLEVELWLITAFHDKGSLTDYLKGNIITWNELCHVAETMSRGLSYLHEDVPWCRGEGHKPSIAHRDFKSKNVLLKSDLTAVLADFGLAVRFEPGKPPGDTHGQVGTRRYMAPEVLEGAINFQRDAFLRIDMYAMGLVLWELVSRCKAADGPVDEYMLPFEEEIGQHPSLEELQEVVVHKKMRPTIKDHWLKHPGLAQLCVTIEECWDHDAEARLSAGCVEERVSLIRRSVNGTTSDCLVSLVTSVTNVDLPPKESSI

TAOK1 = target: T32, TAOK1 (Homo sapiens, UniProt Q7L7X3)
T32 construct: purchased DiscoverX (KINOMEscan)

EPHB6 = target: T33, EPHB6 (Homo sapiens, UniProt O15197)
T33 construct: purchased DiscoverX (KINOMEscan)

VEGFR2 = target: T34, VEGFR2 (Homo sapiens, UniProt P35968)
T34 construct: purchased DiscoverX (KINOMEscan)

EPHA2 = target: T35, EPHA2 (Homo sapiens, UniProt P29317)
T35 construct: purchased DiscoverX (KINOMEscan)
T35 sequence (P29317 24-976): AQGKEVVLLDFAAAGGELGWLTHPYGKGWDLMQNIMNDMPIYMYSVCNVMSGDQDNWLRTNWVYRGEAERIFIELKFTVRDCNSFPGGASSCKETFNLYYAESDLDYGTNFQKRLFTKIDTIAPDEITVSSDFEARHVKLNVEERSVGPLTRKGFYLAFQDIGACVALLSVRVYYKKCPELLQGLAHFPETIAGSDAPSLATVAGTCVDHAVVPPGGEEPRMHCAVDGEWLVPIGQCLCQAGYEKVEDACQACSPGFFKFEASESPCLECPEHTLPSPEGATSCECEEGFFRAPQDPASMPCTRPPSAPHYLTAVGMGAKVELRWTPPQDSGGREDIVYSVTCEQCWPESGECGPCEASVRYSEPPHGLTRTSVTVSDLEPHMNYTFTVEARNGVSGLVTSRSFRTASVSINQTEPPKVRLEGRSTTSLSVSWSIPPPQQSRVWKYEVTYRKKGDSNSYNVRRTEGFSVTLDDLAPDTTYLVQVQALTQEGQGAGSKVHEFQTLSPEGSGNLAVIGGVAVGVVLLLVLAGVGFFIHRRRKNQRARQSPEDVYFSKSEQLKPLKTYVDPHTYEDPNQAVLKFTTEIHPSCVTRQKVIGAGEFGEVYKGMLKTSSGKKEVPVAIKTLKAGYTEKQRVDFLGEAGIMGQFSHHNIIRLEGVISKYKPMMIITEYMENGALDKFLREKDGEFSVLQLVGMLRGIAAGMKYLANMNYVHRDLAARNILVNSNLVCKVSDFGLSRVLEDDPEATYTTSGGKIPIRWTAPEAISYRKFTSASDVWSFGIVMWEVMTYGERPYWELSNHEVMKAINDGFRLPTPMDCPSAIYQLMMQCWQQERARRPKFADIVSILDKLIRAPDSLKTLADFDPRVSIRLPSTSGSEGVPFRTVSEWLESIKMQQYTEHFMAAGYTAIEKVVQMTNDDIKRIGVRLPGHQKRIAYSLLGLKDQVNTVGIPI

YANK1 = target: T36, YANK1 (Homo sapiens, UniProt Q8WU08)
T36 construct: purchased DiscoverX (KINOMEscan)

EGFR(S752-I759del) = target: T37, EGFR(S752-I759del) (Homo sapiens, UniProt P00533, DEL752-759)
T37 construct: purchased DiscoverX (KINOMEscan)

T1 sequence (O14976 whole entry): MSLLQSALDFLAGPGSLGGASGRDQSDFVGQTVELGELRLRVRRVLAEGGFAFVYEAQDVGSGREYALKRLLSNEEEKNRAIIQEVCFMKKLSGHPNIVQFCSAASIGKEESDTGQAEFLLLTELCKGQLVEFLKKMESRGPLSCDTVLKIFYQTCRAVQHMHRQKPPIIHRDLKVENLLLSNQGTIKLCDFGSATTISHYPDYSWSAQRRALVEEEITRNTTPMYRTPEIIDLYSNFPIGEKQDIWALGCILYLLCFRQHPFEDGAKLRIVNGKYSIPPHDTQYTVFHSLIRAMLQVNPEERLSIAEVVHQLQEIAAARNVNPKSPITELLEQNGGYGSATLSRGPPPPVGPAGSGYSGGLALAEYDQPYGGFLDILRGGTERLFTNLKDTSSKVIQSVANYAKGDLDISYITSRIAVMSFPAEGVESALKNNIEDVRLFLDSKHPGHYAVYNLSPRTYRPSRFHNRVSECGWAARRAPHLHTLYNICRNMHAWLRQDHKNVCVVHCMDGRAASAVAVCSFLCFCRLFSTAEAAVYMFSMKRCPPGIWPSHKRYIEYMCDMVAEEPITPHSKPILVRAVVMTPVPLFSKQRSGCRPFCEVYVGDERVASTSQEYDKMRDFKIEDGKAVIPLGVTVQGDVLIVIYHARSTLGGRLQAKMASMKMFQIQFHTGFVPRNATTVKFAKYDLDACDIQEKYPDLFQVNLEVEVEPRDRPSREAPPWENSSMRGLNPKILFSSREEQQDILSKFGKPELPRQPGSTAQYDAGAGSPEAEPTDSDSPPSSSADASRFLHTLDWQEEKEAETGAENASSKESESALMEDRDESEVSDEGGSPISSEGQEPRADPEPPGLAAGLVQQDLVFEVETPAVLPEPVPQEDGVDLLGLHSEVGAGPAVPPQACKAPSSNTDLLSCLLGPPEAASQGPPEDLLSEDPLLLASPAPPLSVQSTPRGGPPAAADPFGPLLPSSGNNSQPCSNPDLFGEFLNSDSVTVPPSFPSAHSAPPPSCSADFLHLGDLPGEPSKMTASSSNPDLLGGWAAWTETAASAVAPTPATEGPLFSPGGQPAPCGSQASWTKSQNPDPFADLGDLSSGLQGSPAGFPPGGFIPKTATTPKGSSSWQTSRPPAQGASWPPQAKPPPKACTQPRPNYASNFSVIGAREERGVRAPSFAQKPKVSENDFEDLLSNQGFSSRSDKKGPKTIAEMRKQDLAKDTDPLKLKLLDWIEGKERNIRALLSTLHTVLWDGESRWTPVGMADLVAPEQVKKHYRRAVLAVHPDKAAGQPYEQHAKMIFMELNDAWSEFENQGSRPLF

COc1cc(/C=C2\N=C(N)NC2=O)ccc1O [Polyandrocarpamine A]
Score (GAK): 100 | Score (MST4): 100 | Score (SIK2): 94 | Score (MYO3A): 100 | Score (MEK2): 100 | Score (TIE2): 98 | Score (SNRK): 100 | Score (FGFR3(G697C)): 83 | Score [1]: 98 | Score (p38-alpha): 100 | Score (CDKL3): 100 | Score (EPHA8): 100 | Score (CHEK2): 100 | Score (TNIK): 100 | Score (SRPK1): 100 | Score (MEK1): 100 | Score (CAMKK2): 94 | Score (STK36): 96 | Score (CDC2L2): 100 | Score (TSSK1B): 100 | Score (HUNK): 100 | Score (CASK): 100 | Score (MARK4): 100 | Score (CDKL1): 100 | Score (BRAF): 100 | Score (ZAK): 95 | Score (CAMK2G): 99 | Score (MYLK2): 95 | Score (YES): 100 | Score (EGFR(G719C)): 95 | Score (ACVR2B): 99 | Score (TAOK1): 76 | Score (EPHB6): 97 | Score (VEGFR2): 100 | Score (EPHA2): 100 | Score (YANK1): 100 | Score (EGFR(S752-I759del)): 100
